Reference: US11173184B2 (priority 2016, dated 2021)
Like-named read-outs stand apart in the source and are kept apart here.

Experiments:
Bacillus spp. = assay: Molecular enumeration (quantitative PCR) in digesta; type: in vivo
Clostridium perfringens = type: in vivo
[1] = system: male Ross 308 broilers with induced Necrotic Enteritis challenge; set-up: species or system broiler chickens; conditions: in vivo
[2] = system: male Ross 308 broilers with induced Necrotic Enteritis challenge (E. maxima, Clostridium perfringens); type: in vivo, broiler chickens
Vencobb 400 broilers = type: in vivo, broiler chickens
male Ross 308 broilers = type: in vivo, broiler chickens; conditions: 1-42 d
[3] = 1-35 days, necrotic enteritis challenge

With CC[C@@H](C(=O)O)[C@@H]1O[C@@H]([C@@H](C)[C@H](O)[C@H](C)C(=O)[C@H](CC)[C@H]2O[C@]3(C=C[C@@H](O)[C@]4(CC[C@@](C)([C@H]5CC[C@](O)(CC)[C@H](C)O5)O4)O3)[C@H](C)C[C@@H]2C)[C@@H](C)C[C@@H]1C [Narasin] the Bacillus spp. (Bacillus spp.; Day 11 Cecum) was 5.24 Log^10 of gene copies/g, the Bacillus spp. (Bacillus spp.; Day 11 Ileum) was 5.68 Log^10 of gene copies/g and the Bacillus spp. (Bacillus spp.; Day 18 Cecum) was 4.54 Log^10 of gene copies/g. For the same compound, the Bacillus spp. (Bacillus spp.; Day 18 Ileum) was 4.94 Log^10 of gene copies/g, the Bacillus spp. (Bacillus spp.; Day 35 Cecum) was 5.23 Log^10 of gene copies/g and the Bacillus spp. (Bacillus spp.; Day 35 Ileum) was 4.84 Log^10 of gene copies/g. For the same compound, the C. perfringens (Clostridium perfringens; Day 11 Cecum) was 6.38 Log^10 of gene copies/g, the C. perfringens (Clostridium perfringens; Day 11 Ileum) was 4.18 Log^10 of gene copies/g and the C. perfringens (Clostridium perfringens; Day 18 Cecum) was 4.87 Log^10 of gene copies/g. For the same compound, the C. perfringens (Clostridium perfringens; Day 18 Ileum) was 4.60 Log^10 of gene copies/g, the C. perfringens (Clostridium perfringens; Day 35 Cecum) was 4.81 Log^10 of gene copies/g and the C. perfringens (Clostridium perfringens; Day 35 Ileum) was 4.03 Log^10 of gene copies/g. For the same compound, the “Footpad Lesion Score (0-4)” value [1] was 0.41, the “BW, average bird body weight” value [2, 3] was 2778.4 g and the “FCR, feed conversion ratio (feed to gain)” value [2, 3] was 1.431 g/g. The “aFCR, feed conversion ratio adjusted for mortalities” value [2, 3] was 1.425 g/g and the “Mortality as a percentage of the pen population” value ([2]; day 11-35, necrotic enteritis challenge) was 1.3%.
For “Bacitracin Methylene Disalicyclate [BMD]”, the “BW, average bird body weight” value (Vencobb 400 broilers; 1-21 d) was 649.4 g, the “FCR, feed conversion ratio (feed to gain)” value (Vencobb 400 broilers; 1-21 d) was 1.45 g/g and the “BW, average bird body weight” value (Vencobb 400 broilers; 1-42 d) was 2321.4 g. The “FCR, feed conversion ratio (feed to gain)” value (Vencobb 400 broilers; 1-42 d) was 1.74 g/g.
With Zinc Bacitracin [ZnB] the “BW, average bird body weight” value (male Ross 308 broilers) was 2988.0 g, the “FCR, feed conversion ratio adjusted for mortalities” value (male Ross 308 broilers) was 1.78 g/g and the Mortality (male Ross 308 broilers) was 1.67%.
